Assay results published in patent publication US6379959B1, “Metalocarboxypeptidase inhibitors and derived molecules used as antitumor agents” (Universitat Autonoma de Barcelona, priority 1996, dated 2002).
Where two headings read alike, the source gives them in different places. Positions of bridges follow the written chain, without caps; N, C: chain ends. No end group written: not given here.

How the values were obtained:
[1] = test system: human pancreatic adenocarcinoma cell line Capan-1; format: cell-based; conditions: SFM, 72 h
Experimental: Other kinds of tests were also carried out, the cells growing in serum-free medium as well; these were studies at short periods of time, 72 h, and of competitiveness with a growth factor plus wtPCI, PCIdelYVG or tail. […] The protocol employed was as follows:
1. In a culture plate of 96 wells, in 42 of which 5,000 cells per well were seed. The cells were placed in full medium (DMEM+10%FBS).
2. After 72 h, once the adhesion of the cells to the surface of the well had taken place, as well as their division, the medium was removed from the wells and to eliminate the remainder of the serum, 200 μL of PBS were added to each well.
3. The PBS was removed and 200 μL of DMEM-FBS were added.
4. After 24 h, the medium was removed and the following treatments were applied:
In 6 wells (control): 200 μL of serum-free medium (SFM) were added.
200 μL of SFM plus the indicated concentration of one of the growth factors and wtPCI were added in 6 wells at a final concentration of 50 μg/mL.
In 6 wells, 200 μL of SFM plus the indicated concentration of one of the growth factors and PCIdelYVG were added at a final concentration of 46 μg/mL. […]
4. Cells were kept in an incubator at 37° C., 87% of relative humidity and 10% of CO2.
5. After 72 h, the cellular growth per well was evaluated using the method detailed in the protocol of Section 4.B.2.a.

[2] = test system: human pancreatic adenocarcinoma cell line Panc-1; assay: Proliferation test with tetrazolium salts, Panc-1 in medium with serum, 10 days; format: cell-based
Experimental: It was performed the same kind of test which had been carried out for the Capan-1 cell line but with Panc-1, another human pancreatic adenocarcinoma cell line. We are referring to a human pancreatic adenocarcinoma ATCC nr. CRL 1469, established by Lieber, M. et al. (1975) In. J. Cancer, 15: 741-747. Of ductal origin, it is not highly differentiated.
As for the Capan-1 cell line, two types of experiments were carried out with and without bovine fetal serum. The protocol followed for the test, growing in RPMI plus bovine fetal serum, was the same as that used with Capan-1 cell line but with small variations, given the difference in the duplication times between the two lines. The tests were carried out with the native PCI (wtPCI) and with the mutant PCI (PCIdelYVG). The protocol is detailed as follows:
1. In a culture plate with 96 wells, 2,000 cells were seed in 30 wells for the tests with wtPCI and in 36 for the tests with PCIdelYVG. From these 30 or 36:
In 6 wells (control), 200 μL of full medium (RPMI+10%FBS) without wtPCI or PCIdelYVG/mL were added. […]
2. The cells were kept in an incubator at 37° C., 87% of relative humidity and 10% of CO2. The old medium was sucked out with a Pasteur pipette. Medium free of wtPCI or PCIdelYVG was added to the control wells and to the others a medium was added with identical concentration of wtPCI or PCIdelYVG.
3. After 10 days, the cell growth was evaluated per well, according to the method detailed in the protocol of Section 4.B.2.a.

[3] = test system: mouse melanoma B16HM cell line; assay: In vitro invasiveness assay through Matrigel membrane; format: cell-based; conditions: PCI 50 μg/mL
Experimental: In this test, with the aim of determining whether the PCI causes some difference in the invasive capacity of tumoral cells in vitro, the number of cells which had migrated through a membrane of Matrigel© in presence or absence of PCI in the culture medium was determined. The detailed protocol is as follows:
1. The wells of Matrigel© which are going to be employed are placed at room temperature on an empty plate of 24.
2. The wells are hydrated by adding […] of tempered full medium and kept for 1.5-2.0 h.
3. After the hydration, take the medium carefully out of the wells; later on, 200,000 cells are added to two wells, respectively. In one of them, we will add the medium in which the cells grow and in the other, medium with PCI.
4. After 17 h of culture in an incubator at 37° C., 90% of relative humidity and 5% of CO2, the samples are processed as follows:
4.11. Look at the microscope and count the number of cells that have migrated through the Matrigel filter.
The invasiveness tests in vitro were carried out with the mouse melanoma B16HM cell line selected as previously described (Barberàr-Guillem, E. et al. (1988) Invasion Metastasis, 8: 266-284). The wells were placed with medium in absence of PCI (control) and in presence of PCI, at a concentration of 50 μg/mL. […]

[4] = test system: ribonuclease secreted by Capan-1; assay: Ribonuclease secretion and glycosylation pattern (zymogram); format: cell-based, human; conditions: PCI 5 μg/mL, pre and postadhesion; DMEM + BMS 10%
Description: To verify whether the PCI when affecting cell growth may provoke metabolic changes too, we analysed the changes in a secreted protein, ribonuclease, in the human pancreatic adenocarcinoma cell line Capan-1. Apart from the mentioned material required for cell culture, this analysis was based on the detection of ribonuclease activity by means of the electrophoretic analysis in activity gels (zymograms) (Bravo, J. et al (1994) Anal Biochem., 219: 82-86).
With this aim in mind, the culture medium of the proliferation tests of Section 4.B.1 was taken. Thus, a culture medium of control cells was provided for cells treated with PCI from the beginning (preanchorage) and for cells treated once they had adhered to the culture surface (postanchorage). Given the fact that the FBS contains bovine ribonuclease which would interfere in our research, these cells grew in DMEM supplemented with BMS at 10%. The procedure was as follows: […]
At the moment of the analyses, the media were unfrozen in order to have an aliquot of each sample. The concentration of total protein was determined by means of the Bradford method (Bradford, M. M. (1976) Anal. Biochem., 72: 248-254). […]
The analysis of ribonuclease secretion was done with Capan-1. […] Using the electrophoretic analysis of ribonuclease activity, the pattern of glycosylation of this protein could be observed and a certain quantification could be made.

## PCI: potato carboxypeptidase inhibitor, isoform IIa, obtained by recombinant DNA techniques in E. coli (SEQ ID NO.2) (EQHADPICNKPCKTHDDCSGAWFCQACWNSARTCGPYVG; disulfide 12-27, 18-34, 8-24)
[1]; EGF 10 ng/mL + 50 mg/mL wtPCI
  Growth (Percentage in relation to the average of the controls): 30.63%
[1]; Insulin 5 mg/mL + 50 mg/mL wtPCI
  Growth (Percentage in relation to the average of the controls): 44.10%
[2]; 0.1 mg/mL wtPCI, RPMI+10%FBS
  Growth (Percentage in relation to the average of the controls): 90.85%
[2]; 1 mg/mL wtPCI
  Growth (Percentage in relation to the average of the controls): 84.55%
[2]; 10 mg/mL wtPCI
  Growth (Percentage in relation to the average of the controls): 82.22%
[2]; 50 mg/mL wtPCI
  Growth (Percentage in relation to the average of the controls): 71.14%
[2]; concentration of 0.1 μg/mL
  level of inhibition: 9.15%
[2]; concentration of 50 μg/mL
  level of inhibition: 28.86%
[3]
  stimulation of the migration compared to the control: 3.5 times
[3]; 17 h (control 29 cells)
  number of cells that passed through the Matrigel membrane: 110 cells
[4]
  secretion and glycosylation of ribonuclease compared to the control group: higher secretion of ribonuclease with a higher degree of glycosylation
